According to US20070078170A1, “Process for the preparation of pioglitazone” (priority 2003, published 2007):

Tests used:
[1] = Clarity of solution in acidic media on standing; assay type: physicochemical
[2] = Solubility studies in USPII dissolution apparatus; assay type: physicochemical
Experimental: Solubility experiments were performed in USPII dissolution apparatus operated at 150 r.p.m., at 25° C., in the following media: 250 ml of 0.01N HC1-0.3M KCI (pH 2)
Procedure: 625 mg of pioglitazone hydrochloride was added in 250 ml of media and solubility was determined at given time points.

[3] = 1.5 hrs, 625 mg in 250 ml of 0.01N HCl-0.3M KCl (pH 2), 25° C., 150 r.p.m., average of six unit data, Hydrochloride
[4] = 5 hrs, 625 mg in 250 ml of 0.01N HCl-0.3M KCl (pH 2), 25° C., 150 r.p.m., average of six unit data, Hydrochloride
[5] = 20 hrs, 625 mg in 250 ml of 0.01N HCl-0.3M KCl (pH 2), 25° C., 150 r.p.m., average of six unit data, Hydrochloride
[6] = 0.01N HCl-0.3M KCl media (pH 2)

Substance	Solubility [2, 3]	Solubility [2, 4]	Solubility [2, 5]	also measured
pioglitazone hydrochloride [listing 1 of 2 here]				Standing time over which the solution remains clear [1]: ≥ 20 h
Pioglitazone Hydrochloride [Example 4]	2.265 mg/mL	0.722 mg/mL	0.473 mg/mL	Observation of the media (turbidity, precipitation) ([2]; 0.01N HCl-0.3M KCl (pH 2), later time points): the media starts becoming turbid and shows drug precipitation on later time points
Pioglitazone Hydrochloride [Example 5]	2.587 mg/mL	2.766 mg/mL	2.747 mg/mL	Solubility [2, 6]: more than 2.4 mg/ml; Standing time without precipitation from the solution [2, 6]: more than 5 hours; Solubility ([2]; 30 min, 625 mg in 250 ml of 0.01N HCl-0.3M KCl (pH 2), 25° C., 150 r.p.m., average of six unit data): 2.719 mg/mL
pioglitazone hydrochloride [listing 2 of 2 here]				Standing time after which the solution becomes turbid and the drug precipitates ([1]; initially clear solution): 4 to 5 h
